Data on 7 compounds can be found in patent EP4786487A1, “PEPTIDE” (Peptidream Inc, priority 2023, dated 2025).

Like-named read-outs stand apart in the source and are kept apart here. Starred links: 1 amine or outer side, 2 acyl side, 3 side chain; linkers in the order of their positions; H or OH if unused. Positions of bridges follow the written chain, without caps; N, C: chain ends. Non-standard residues stand in square brackets, D forms with d. Residues, ends and D or L forms follow the SMILES beside them. Groups on a side chain read outwards from the residue. *: point of attachment. Ala(1-CH2CO2H-4-piperidyl) = N[C@@H](CC1CCN(CC(=O)O)CC1)C(=O)O; X4 = CN(C)C(=O)Cn1cc(-c2ccc(C[C@H](N[*:1])C(=O)[*:2])cc2)cn1; Phe(3-OCH2COOH) = N[C@@H](Cc1cccc(OCC(=O)O)c1)C(=O)O; Phe(4-COOH) = N[C@@H](Cc1ccc(C(=O)O)cc1)C(=O)O; Piperazinyl(4-CH2COOH) = O=C(O)CN1CCN(*)CC1; Gly(Nα-CH2CH2CONH2) = NC(=O)CCNCC(=O)O; Gly(decyl) = CCCCCCCCCC[C@H](N)C(=O)O; Gly(N(CH2)3COOH) = O=C(O)CCCNCC(=O)O; X1 = CCCCCCC[C@H](N[*:1])C(=O)[*:2]; NMeCha = CN[C@@H](CC1CCCCC1)C(=O)O; NMeF = CN[C@@H](Cc1ccccc1)C(=O)O; 4Pal = N[C@@H](Cc1ccncc1)C(=O)O; Cha = N[C@@H](CC1CCCCC1)C(=O)O; Ahp(2) = CCCCC[C@H](N)C(=O)O; NMeA = CN[C@@H](C)C(=O)O; CO = O=C([*:1])[*:2]; NEtG = CCNCC(=O)O; Sar = CNCC(=O)O

The target of one experiment is T1, Myostatin (Homo sapiens, UniProt O14793).
T1 construct: active myostatin (also called mature myostatin) is a homodimer consisting of two C-terminal growth factor domains; purchased R&D systems 788-G8/CF
T1 sequence (O14793 267-375): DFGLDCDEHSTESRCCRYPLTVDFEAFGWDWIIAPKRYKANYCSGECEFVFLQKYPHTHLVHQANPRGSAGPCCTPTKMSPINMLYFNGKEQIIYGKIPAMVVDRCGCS
As to the kind of experiment: HepG2 reporter gene assay, Evaluation Procedure (2): 2-concentrations assay, myostatin inhibition. Format: cell-based. A digest of the protocol: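 Myostatin inhibition was measured in a luciferase reporter assay using HepG2 cells transfected with a pGL3 vector containing 12 CAGA repeats upstream of luciferase. After 20 to 24 hours with 10 ng/mL myostatin, cells received One-Glo:PBS (1:1) at 100 µL/well, were shaken for 5 min, and 20 µL/well was moved to 384-well plates and read on an Envision 2104.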
In general terms: A reporter such as luciferase makes a cellular process visible.

Another experiment has as its target T2, GDF-11 (Homo sapiens, UniProt O95390).
T2 construct: purchased R&D systems 1958-GD-G8/CF
T2 sequence (O95390 299-407): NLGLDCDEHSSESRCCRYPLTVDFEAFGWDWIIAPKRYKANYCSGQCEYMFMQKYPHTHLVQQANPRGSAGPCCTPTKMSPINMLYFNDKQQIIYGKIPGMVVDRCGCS
As to the kind of experiment: HepG2 reporter gene assay, Evaluation Procedure (2): 2-concentrations assay, GDF-11 inhibition. Format: cell-based. The essentials:
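HepG2 cells carrying the transfected pGL3(CAGA)12-luc reporter, a pGL3 vector with luciferase placed downstream of 12 CAGA repeats, were stimulated with GDF-11 at a final 10 ng/mL together with test peptide. Blank wells received no GDF-11 and no peptide. Plates were incubated 20 to 24 hours at 37°C with 5% CO2. Luminescence from One-Glo substrate was read to calculate percent inhibition.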

The mark [1] stands for this setting: peptide 30nM, Myostatin 10 ng/mL, HepG2, read-out: Myostatin Inhibition 30nM.
Setting [2] is: peptide 100nM, Myostatin 10 ng/mL, HepG2, read-out: Myostatin Inhibition 100nM.
[3] abbreviates: HepG2, peptide 30nM, GDF-11 10 ng/mL, read-out: GDF11 Inhibition 30nM.
Setting [4] is: HepG2, peptide 100nM, GDF-11 10 ng/mL, read-out: GDF11 Inhibition 100nM.

Turning to `CCCCCCC[C@@H]1NC(=O)[C@H](Cc2ccccc2)N(C)C(=O)[C@H](CCCNC(=N)N)NC(=O)[C@H](Cc2ccc(C(=O)O)cc2)NC(=O)[C@H](CC2CCN(CC(=O)O)CC2)NC(=O)CN(C)C(=O)[C@H]([C@@H](C)CC)NC(=O)[C@H](Cc2ccccc2)N(C)C(=O)[C@H](Cc2ccc(O)cc2)NC(=O)[C@H](Cc2c[nH]c3ccccc23)NC(=O)[C@H](C)NC(=O)CN(CCCC(=O)O)C(=O)CSC[C@H](C(=O)O)NC(=O)[C@H](Cc2ccccc2)N(C)C(=O)[C@H](C)N(C)C1=O` [Myostatin_99_v233] ({CH2CO}-[Gly(N(CH2)3COOH)]AWY[NMeF]I[Sar][Ala(1-CH2CO2H-4-piperidyl)][Phe(4-COOH)]R[NMeF][X1][NMeA][NMeF][dC]-OH; thioether N-15), the inhibition at 0.03 µM was found to be 50% on Myostatin (setting [1]) and 8% at GDF-11 (setting [3]). Moreover, the inhibition at 0.1 µM at Myostatin (setting [2]) was determined as 85%; on GDF-11 (setting [4]), 0%.
The corresponding values for `CCCCCCC[C@@H]1NC(=O)[C@H](Cc2ccccc2)N(C)C(=O)[C@H](CCCNC(=N)N)NC(=O)[C@H](Cc2ccc(C(=O)O)cc2)NC(=O)[C@H](Cc2ccncc2)NC(=O)CN(C)C(=O)[C@H]([C@@H](C)CC)NC(=O)[C@H](Cc2ccccc2)N(C)C(=O)[C@H](Cc2ccc(O)cc2)NC(=O)[C@H](Cc2c[nH]c3ccccc23)NC(=O)[C@H](C)NC(=O)CN(CCCC(=O)O)C(=O)CSC[C@H](C(=O)N[C@@H](CC2CCN(CC(=O)O)CC2)C(N)=O)NC(=O)[C@H](Cc2ccccc2)N(C)C(=O)[C@H](C)N(C)C1=O` [Myostatin_99_v235] ({CH2CO}-[Gly(N(CH2)3COOH)]AWY[NMeF]I[Sar][4Pal][Phe(4-COOH)]R[NMeF][X1][NMeA][NMeF][dC][Ala(1-CH2CO2H-4-piperidyl)]-NH2; thioether N-15) are 91%, 0%, 99% and 0%.
The corresponding values for `CCCCC[C@@H]1NC(=O)[C@H](Cc2ccccc2)N(C)C(=O)[C@H](CCCNC(=N)N)NC(=O)[C@H](Cc2ccc(C(=O)O)cc2)NC(=O)[C@H](Cc2cccc(OCC(=O)O)c2)NC(=O)CN(C)C(=O)[C@H]([C@@H](C)CC)NC(=O)[C@H](Cc2ccccc2)N(C)C(=O)[C@H](Cc2ccc(O)cc2)NC(=O)[C@H](Cc2c[nH]c3ccccc23)NC(=O)[C@H](C)NC(=O)[C@H](C)N(C)C(=O)CSC[C@H](C(=O)O)NC(=O)[C@H](Cc2ccccc2)N(C)C(=O)[C@H](C)N(C)C1=O` [Myostatin_99_v240] ({CH2CO}-[NMeA]AWY[NMeF]I[Sar][Phe(3-OCH2COOH)][Phe(4-COOH)]R[NMeF][Ahp(2)][NMeA][NMeF][dC]-OH; thioether N-15) are 69%, 0%, 91% and 0%.
The corresponding values for `CCCCC[C@@H]1NC(=O)[C@H](Cc2ccccc2)N(C)C(=O)[C@H](CCCNC(=N)N)NC(=O)[C@H](Cc2ccc(C(=O)O)cc2)NC(=O)[C@H](Cc2cccc(OCC(=O)O)c2)NC(=O)CN(C)C(=O)[C@H]([C@@H](C)CC)NC(=O)[C@H](Cc2ccccc2)N(C)C(=O)[C@H](Cc2ccc(O)cc2)NC(=O)[C@H](Cc2c[nH]c3ccccc23)NC(=O)[C@H](C)NC(=O)CN(CCC(N)=O)C(=O)CSC[C@H](C(=O)O)NC(=O)[C@H](Cc2ccccc2)N(C)C(=O)[C@H](C)N(C)C1=O` [Myostatin_99_v242] ({CH2CO}-[Gly(Nα-CH2CH2CONH2)]AWY[NMeF]I[Sar][Phe(3-OCH2COOH)][Phe(4-COOH)]R[NMeF][Ahp(2)][NMeA][NMeF][dC]-OH; thioether N-15) are 18%, 0%, 58% and 0%.
Regarding `CCCCCCCCCC[C@@H]1NC(=O)[C@H](CC2CCCCC2)NC(=O)[C@H](CCCNC(=N)N)NC(=O)[C@H](Cc2ccc(C(=O)O)cc2)NC(=O)[C@H](CCCCNC(=O)N2CCN(CC(=O)O)CC2)NC(=O)[C@H]2CCCN2C(=O)[C@H]([C@@H](C)CC)NC(=O)[C@H](CC2CCCCC2)N(C)C(=O)[C@H](Cc2ccc(O)cc2)NC(=O)[C@H](Cc2c[nH]c3ccccc23)NC(=O)[C@@H](CCC(=O)O)NC(=O)[C@H](C)NC(=O)CSC[C@H](C(=O)N2CCN(CC(=O)O)CC2)NC(=O)[C@H](Cc2ccccc2)N(C)C(=O)[C@H](C)N(C)C1=O` [Myostatin_99_v247] ({CH2CO}-A[dE]WY[NMeCha]I[dP]K([CO-Piperazinyl(4-CH2COOH)])[Phe(4-COOH)]R[Cha][Gly(decyl)][NMeA][NMeF][dC]-{Piperazinyl(4-CH2COOH)}; thioether N-15), the inhibition at 0.03 µM is 68% on Myostatin (setting [1]) and 0% at GDF-11 (setting [3]). In addition, the inhibition at 0.1 µM turned out to be 94% on Myostatin (setting [2]) and 6% on GDF-11 (setting [4]).
On to `CCCCCCC[C@@H]1NC(=O)[C@H](CC2CCCCC2)NC(=O)[C@H](CCCNC(=N)N)NC(=O)[C@H](Cc2ccc(C(=O)O)cc2)NC(=O)[C@H](CCCCNC(=O)N2CCN(CC(=O)O)CC2)NC(=O)[C@H]2CCCN2C(=O)[C@H]([C@@H](C)CC)NC(=O)[C@H](CC2CCCCC2)N(C)C(=O)[C@H](Cc2ccc(O)cc2)NC(=O)[C@H](Cc2ccc(-c3cnn(CC(=O)N(C)C)c3)cc2)NC(=O)[C@@H](CCC(=O)O)NC(=O)[C@H](C)NC(=O)CSC[C@H](C(=O)N2CCN(CC(=O)O)CC2)NC(=O)[C@H](Cc2ccccc2)N(C)C(=O)[C@H](C)N(C)C1=O` [Myostatin_99_v256] ({CH2CO}-A[dE][X4]Y[NMeCha]I[dP]K([CO-Piperazinyl(4-CH2COOH)])[Phe(4-COOH)]R[Cha][X1][NMeA][NMeF][dC]-{Piperazinyl(4-CH2COOH)}; thioether N-15), for which the inhibition at 0.03 µM was 57% on Myostatin (HepG2, read-out: Myostatin Inhibition 30nM) and 0% at GDF-11 (HepG2, read-out: GDF11 Inhibition 30nM, peptide 30nM, GDF-11 10 ng/mL). For the same compound, the inhibition at 0.1 µM on Myostatin (HepG2, read-out: Myostatin Inhibition 100nM) was 88%; at GDF-11 (HepG2, read-out: GDF11 Inhibition 100nM, peptide 100nM, GDF-11 10 ng/mL) it was 4%.
`CCCCCCC[C@@H]1NC(=O)[C@H](Cc2ccccc2)N(C)C(=O)[C@H](CCCNC(=N)N)NC(=O)[C@H](Cc2ccc(C(=O)O)cc2)NC(=O)[C@H](CCCCNC(=O)N2CCN(CC(=O)O)CC2)NC(=O)CN(CC)C(=O)[C@H]([C@@H](C)CC)NC(=O)[C@H](CC2CCCCC2)N(C)C(=O)[C@H](Cc2ccc(O)cc2)NC(=O)[C@H](Cc2c[nH]c3ccccc23)NC(=O)[C@@H](CCC(=O)O)NC(=O)[C@H](C)NC(=O)CSC[C@H](C(=O)N2CCN(CC(=O)O)CC2)NC(=O)[C@H](Cc2ccccc2)N(C)C(=O)[C@H](C)N(C)C1=O` [Myostatin_99_v258] ({CH2CO}-A[dE]WY[NMeCha]I[NEtG]K([CO-Piperazinyl(4-CH2COOH)])[Phe(4-COOH)]R[NMeF][X1][NMeA][NMeF][dC]-{Piperazinyl(4-CH2COOH)}; thioether N-15): the inhibition at 0.03 µM came to 21% on Myostatin (setting [1]) and 0% on GDF-11 (setting [3]). Besides, the inhibition at 0.1 µM at Myostatin (setting [2]) came out at 61%; at GDF-11 (setting [4]), 0%.
